Source: US8097608B2, “Methods for treatment of cardiovascular disorders and diseases” (Technion Research and Development Foundation Ltd., priority 2003, dated 2012)

Legend:
[1] = test system: neonatal rat ventricular myocytes; experiment: Serum starvation-induced apoptosis in neonatal rat ventricular myocytes (caspase-3 cleavage, Bcl-2); type: cell-based; conditions: 0.1 μM, added 1 hour before; 0% FCS, 24 hours
Experimental: Caspase-3 is a protein of the cysteine-aspartic acid protease (caspase) family, known as a key pro-apoptotic protein and therefore as a common marker of apoptosis.
In order to test whether propargylamine can prevent serum starvation-induced apoptosis in cultured neonatal rat ventricular myocytes, we repeated the serum starvation protocol and 0.1 μM propargylamine was introduced to the culture medium 1 hour before serum starvation. As shown in FIGS. 6B-6C, propargylamine attenuated serum starvation-induced apoptosis in neonatal rat ventricular myocytes as indicated both by the drug-induced decrease in caspase 3 cleavage (FIG. 6B) and increase in the expression of mitochondrial Bcl-2, known as an anti-apoptotic protein (FIG. 6C).

[2] = test system: H9c2 cells; experiment: Fas-mediated (rFasL) apoptosis in H9c2 cells, DAPI staining; type: cell-based, rat; conditions: added 16 hours before and present throughout
Experimental: (§1) (ii) Cell Line H9c2. Experiments were performed on the embryonic rat heart cell line H9c2. H9c2 cells were cultured in DMEM (Biological Industries, Beit-Haemek, Israel) supplemented with 10% fetal calf serum (FCS), 50 units/ml penicillin G, 50 μg/ml streptomycin sulfate, 2 mg/ml L-glutamine and sodium pyruvate. H9c2 cells were harvested by trypsinization, washed with PBS, diluted to a concentration of 5×10^4 cells/ml with DMEM (high glucose) and cultured at 0.5 ml/well on sterile glass cover slips in 24-well plates.
(c) Activation of the Fas receptor—Fas activation was induced by incubating the cultures with recombinant human Fas Ligand (rFasL; 10 ng/ml) plus the enhancing antibody (1 μg/ml) for the indicated times, according to the manufacturer's recommendations (Alexis Biochemicals, San Diego, Calif.).
(§2) (iv) Determination of Apoptosis by DAPI. Cultures were counterstained with 4′, 6-diamidino-2-phenylindole (DAPI) to visualize the nuclear morphology.
Cultures of embryonic rat heart cell line H9c2 were incubated with rFasL (10 ng/ml) and an enhancing antibody for periods of time of 9, 10 and 24 hours, and apoptosis measured thereafter.
In order to determine whether rasagiline can prevent Fas-mediated apoptosis, the Fas receptor was activated for 9, 10 and 24 hours as described above. Rasagiline (10 μM) was introduced to the culture medium 16 hours before, and was present throughout the apoptosis-inducing protocol (n=3 wells).
Each one of the drugs, at a concentration of either 0.1 or 1.0 μM was introduced to the culture medium 16 hours before, and was presented throughout the apoptosis-inducing protocol (n=3 wells).

[3] = test system: CHF rats; experiment: Echocardiography in volume overload-induced CHF rats (AVF); type: in vivo, rat; conditions: 7.5 mg/kg/day orally, 21 days from 7 days prior to surgery; for Reduction in fractional shortening: day 21 (14 days post-surgery)
Experimental: (§3) (v) Animals. Studies were conducted on male Sprague Dawley rats (Harlan Laboratories Ltd., Jerusalem, Israel), weighing ˜300 g. The animals were kept in a temperature-controlled room and maintained on standard rat diet (0.5% NaCl). All experiments were performed according to the guidelines of the Technion Committee for Supervision of Animal Experiments (Haifa, Israel). […] Sham-operated rats served as controls. Drugs (or saline as control) were orally administered, starting 7 days prior to surgery (day 0) and were continued for 21 days. Surgery was performed on day 7 and animals sacrified 14 days post-surgery (day 21). Cardiac function was determined by echocardiography on days 0, 10 (3 days post-surgery) and 21 (before sacrifice). After the last echocardiography measurement, rats were sacrified and hearts were analyzed.
Rats were treated as described in Materials and Methods hereinabove and volume overload was induced by surgical creation of an aortocaval fistula (AVF). Drugs (7.5 mg/kg/day) were administered according to the protocol described above, starting 7 days prior to surgery (day 0) and during 21 days. Cardiac function was determined by echocardiography, from which two principle parameters, namely, diastolic area and systolic area, were calculated. These parameters were used for calculating the fractional shortening, which is an established measure of the ventricular contraction capacity, according to the equation: Fractional shortening =(diastolic area-systolic area)/diastolic area.

[4] = test system: neonatal rat ventricular myocytes; experiment: Doxorubicin-induced apoptosis in neonatal rat ventricular myocytes (caspase-3 cleavage); type: cell-based; conditions: 1 or 10 μM, added 24 hours before; 1 μM doxorubicin 24 hours
Experimental: In order to test whether propargylamine or S(−)—N-propargyl-1-aminoindan can prevent doxorubicin-induced apoptosis in cultured neonatal rat ventricular myocytes, these drugs (at a concentration of either 1 or 10 μM) were introduced to the culture medium 24 hours before the incubation (24 hours) with 1 μM doxorubicin.

[5] = test system: neonatal rat ventricular myocytes; experiment: Fas-mediated hypertrophy in cultured neonatal rat ventricular myocytes (ANP mRNA, RT-PCR); type: cell-based; conditions: rFasL 24 hours; for ANP mRNA elevation induced by Fas activation: 10 μM, 3 experiments per drug
Experimental: In order to test whether rasagiline can prevent the marked hypertrophy induced in cultured neonatal rat ventricular myocytes (for methods, see Yaniv et al., 2002), Fas was activated for 24 hours by incubation with rFasL (10 ng/ml plus 1 μg/ml of the enhancer antibody). Hypertrophy was assessed by determining the mRNA levels (by means of RT-PCR) of the atrial natriuretic peptide (ANP), which is a most common molecular marker of hypertrophy. Rasagiline ([…]) was added to the culture 1 hour before Fas activation and remained in the medium throughout the 24 hours exposure to rFasL.
In order to test whether S(−)—N-propargyl-1-aminoindan and propargylamine have the same effect on marked hypertrophy induced in cultured neonatal rat ventricular myocytes, similar experiments were performed using either propargylamin or S(−)—N-propargyl-1-aminoindan (both at a concentration of 10 μM) instead of rasagiline.

[6] = test system: Bax, Bcl-2, PKC-ε in hearts of naïve rats; experiment: Anti-apoptotic and pro-apoptotic proteins in hearts of naive rats; type: in vivo, rat; conditions: 5 mg/kg/day orally for 21 days
Experimental: In this experiment we tested the effects of propargylamine and S(−)—N-propargyl-1-aminoindan on several key anti-apoptotic and pro-apoptotic proteins in hearts of naïve rats.
The drugs (5 mg/kg/day) were orally administered to rats for 21 days (n=4-6 rats in each group), and measurements were made after sacrifice. […] Furthermore, both propargylamine and S(−)—N-propargyl-1-aminoindan increased the expression of the key anti-apoptotic PKC-ε (FIGS. 9D-9E, respectively).

[7] = test system: caspase-3 and cytochrome C in CHF rats; experiment: Caspase-3 and cytosolic cytochrome C in volume overload-induced CHF rats (AVF); type: in vivo, rat
Experimental: as §3
Rats were treated as described in Materials and Methods hereinabove and volume overload was induced by surgical creation of an aortocaval fistula (AVF). Sham-operated rats served as controls. 14 days after induction of volume-overload, caspase-3 cleavage and cytosolic cytochrome C, both pro-apoptotic proteins, were analyzed.
In the following experiment we tested whether propargylamine or S(−)—N-propargyl-1-aminoindan can reduce CHF-induced increase in caspase-3 and cytochrome C. Rats were treated and drugs were administered (1 or 7.5 mg/kg/day S(−)—N-propargyl-1-aminoindan, or 5 mg/kg/day propargylamine) as described in Materials and Methods hereinabove.

[8] = test system: H9c2 cells; experiment: Serum starvation-induced apoptosis in H9c2 cells, MTT staining assay; type: cell-based, rat; conditions: 0.1-10 μM; 0% FCS for 24 hours
Experimental: (§4) (b) Serum starvation—To induce apoptosis, H9c2 cultures were incubated in the culture medium containing 0% FCS for the indicated times.

[9] = test system: naïve rats; experiment: Cardiovascular hemodynamic parameters in naive rats after IV bolus; type: in vivo, rat
Experimental: As the first step in testing the beneficial in vivo efficacy of the propargylamine derivatives on the cardiac function, we measured key cardiovascular hemodynamic parameters in control naïve rats, and in rats administered IV with a bolus of 1 mg/kg S(−)—N-propargyl-1-aminoindan, followed with a bolus of 10 mg/kg S(−)—N-propargyl-1-aminoindan (Sprague Dawley rats were used, n=3 rats in each group). Measurements were made at baseline, 30 minutes after each drug administration, and 1 hour (recovery) after drug administration.

[10] = test system: H9c2 cells; experiment: Serum starvation-induced apoptosis in H9c2 cells, DAPI staining; type: cell-based, rat
Experimental: as §1, §4, §2
The next apoptosis-inducing stimulus tested was serum starvation ([…], 0% serum in the culture medium). To induce apoptosis, H9c2 cells were incubated in the culture medium containing 0% FCS for 6, 7, 8 or 9 hours. Rasagiline (10 μM) was introduced to the culture medium 2 hours before inducing serum starvation and was present throughout the apoptosis-inducing protocol (n=3 wells).
In another experiment, we repeated the serum starvation protocol, and also tested in the same cultures whether rasagiline can protect against H2O2-induced apoptosis. Rasagiline was introduced to the culture medium 2 hours before inducing serum starvation or adding H2O2, and was present throughout the apoptosis-inducing protocol (n=4 experiments; ˜2000 cells counted).

[11] = 0.1 or 1.0 μM, ~10 hours incubation with rFasL (~10% apoptosis)
[12] = 10 mg/kg IV bolus, 30 minutes after administration

## C#CCN [propargylamine]
[1]
  Caspase 3 cleavage, serum starvation: decrease
  Expression of mitochondrial Bcl-2, serum starvation: increase
[2]; [11]
  Fas-mediated apoptosis: completely prevented
[3]; 14 days post-surgery
  Hypertrophic increase in the diastolic area: completely prevented
  Hypertrophic increase in the systolic area: completely prevented
[3]
  Reduction in fractional shortening: completely prevented
[4]
  Doxorubicin-induced apoptosis (caspase-3 cleavage): significantly attenuated
[5]
  ANP mRNA elevation induced by Fas activation: completely blocked
[6]
  Expression of anti-apoptotic PKC-ε: increased
  Expression of mitochondrial anti-apoptotic protein Bcl-2: markedly increased
  Expression of mitochondrial pro-apoptotic protein Bax: did not affect
  Ratio Bcl-2/Bax: marked increase
[7]; 5 mg/kg/day orally for 21 days
  CHF-induced increase in caspase-3: significantly reduced
[7]; 5 mg/kg/day orally for 21 days (FIG. 11B)
  CHF-induced increase in cytochrome C: significantly reduced

## C#CCN[C@H]1CCc2ccccc21 [S(−)—N-propargyl-1-aminoindan]
[2]; [11]
  Fas-mediated apoptosis: completely prevented
[3]
  Reduction in fractional shortening: completely prevented
[3]; days 10 and 21
  Hypertrophic increase in the diastolic area: completely prevented
  Hypertrophic increase in the systolic area: completely prevented
[4]
  Doxorubicin-induced apoptosis (caspase-3 cleavage): significantly attenuated
[5]
  ANP mRNA elevation induced by Fas activation: completely blocked
[6]
  Expression of anti-apoptotic PKC-ε: increased
[7]; 1 mg/kg/day orally for 21 days (FIG. 11B)
  CHF-induced increase in cytochrome C: significantly reduced
[7]; 7.5 mg/kg/day orally for 21 days (FIG. 11A)
  CHF-induced increase in caspase-3: significantly reduced
[8]
  Anti-apoptotic effect, serum starvation, MTT staining: anti-apoptotic effect
[9]; [12]
  Cardiac index: markedly increased
  Cardiac output: markedly increased
  Heart rate: did not affect
  Mean arterial pressure (MAP): did not affect
[9]; washout period (recovery, 1 hour after administration)
  Reversibility of the effect on cardiac function: reversible

## C#CCN[C@@H]1CCc2ccccc21 [rasagiline, R(+)—N-propargyl-1-aminoindan]
[2]; 10 μM, 10 hours incubation with rFasL (~20% apoptosis)
  Fas-mediated apoptosis: completely prevented
[5]; 10 μM/ml, added 1 hour before, preliminary, data not shown
  Fas-mediated hypertrophy (ANP mRNA): prevented Fas-mediated hypertrophy
[10]; 10 μM, added 2 hours before, 9 hrs serum starvation (12% apoptosis)
  Serum starvation-induced apoptosis: completely prevented
[10]; 0.1-10 μM, added 2 hours before, 0% FCS for 24 hours
  Anti-apoptotic effect, serum starvation: anti-apoptotic effect
[10]; Example 3, added 2 hours before, n=4 experiments
  Apoptosis induced by serum starvation: prevented
